# Experimental data: publication PMC7698965 (Cancers, 2020)
# Where two headings read alike, the source gives them in different places.
# Key:
# F98-cell = tested on: F98-cell; set-up: method as in earlier work; details: post-neutron irradiation (2 Gy), cited from earlier work
# S. typhimurium TA98 = experiment: Ames test; details: TA98, positive control NPD 20.0 mg/plate
# S. typhimurium TA100 = experiment: Ames test; details: TA100, positive control NPD 2.0 mg/plate
# [1] = tested on: U87 MG cells co-cultured with neonatal murine astrocytes; experiment: Confocal microscopy of treated co-cultures (PKH26, DAPI); format: cell-based, human; details: IC50,U87 MG doses, 24 h
# U87 MG cells = experiment: Cell cycle/DNA content by flow cytometry; format: cell-based, human; details: 24 h at IC50 (1 8.0 μM, Sun 32 μM)
# C6 = details: cited from earlier work; for IC50: 24 h incubation, SRB
# AMPK = details: read-out: IC50,Sun,AMPK; cited from earlier work
# RSK1 = details: read-out: IC50,Sun,RSK1; cited from earlier work
# astrocytes = experiment: Cell cycle/DNA content by flow cytometry; format: cell-based, mouse; details: 24 h at IC50 (1 8.0 μM, Sun 32 μM)
# U87 MG = details: 24 h incubation, SRB; cited from earlier work
# HT-29 = details: 24 h incubation, SRB; cited from earlier work
# [2] = tested on: U87 MG human glioblastoma; experiment: In vivo anti-glioblastoma activity
# [3] = 1 at 1 mg/kg/day, Tmz at 4 mg/kg/day, ip three times a week
compound,measurement,setting,value
10B-boronophenylalanine fructose [Compound 10BPA-fr],Surviving Fraction,F98-cell; 0.1 ppm equivalents of 10B,89 ± 11%
same,Surviving Fraction,F98-cell; 1.0 ppm equivalents of 10B,71 ± 11%
same,Surviving Fraction,F98-cell; 10.0 ppm equivalents of 10B,92 ± 6%
"Nc1ccc([N+](=O)[O-])cc1N [Positive control, 4-Nitro-o-phenylendiamine]",Number of revertants,S. typhimurium TA98,295 ± 11
same,Number of revertants,S. typhimurium TA100,704 ± 6
"CCN(CC)CCNC(=O)c1c(C)[nH]c(/C=C2\C(=O)Nc3ccc(F)cc32)c1C [Sun, sunitinib]",DAPI nuclei staining,[1],chromatin condensation
same,U87 MG population (PKH26 dye) compared to the control,[1],decrease of U87 MG population
same,effect on cell cycle distribution,U87 MG cells,increase in the percentage of both astrocytes and U87 MG cells in the sub-G1 phase
same,IC50,C6,36 ± 10 µM
same,IC50,AMPK,320 nM
same,effect on cell cycle distribution,astrocytes,increase in the percentage of both astrocytes and U87 MG cells in the sub-G1 phase
same,IC50,U87 MG,32 ± 4 µM
same,IC50,HT-29,6.25 ± 0.04 µM
"CS(=O)(=O)CCNCc1ccc(-c2ccc3ncnc(Nc4ccc(OCc5cccc(F)c5)c(Cl)c4)c3c2)o1 [Lap, lapatinib]",IC50,C6,> 100 µM
same,percent of cells survival at 100 μM,"C6; C6, 100 μM",89 ± 5%
same,percentages of cell survival at 100 μM,"C6; C6, 100 μM",89 ± 5%
same,IC50,U87 MG,54 ± 14 µM
same,IC50,HT-29,6.25 ± 0.05 µM
"C#Cc1cccc(Nc2ncnc3cc(OCCOC)c(OCCOC)cc23)c1 [Erl, erlotinib]",IC50,C6,> 100 µM
same,IC50,U87 MG,63 ± 5 µM
same,IC50,HT-29,> 100 µM
"Cn1nnc2c(C(N)=O)ncn2c1=O [Tmz, temozolomide]",mouse survival time,[2]; [3],27 days
same,time to mouse deaths,[2]; [3],23 days
same,median survival,[2]; Tmz 4 mg/kg/day ip three times a week,23 days
